In patent US4983622A, “6-substituted-4-dialkylaminotetrahydrobenz(c,d)indoles” (Eli Lilly and Company, priority 1985, dated 1991):

Experiments:
serotonin = settings: Harris and Uhle; cited from earlier work
[1] = target: ^3 H-serotonin (^3 H-5HT) receptor binding, rat cerebral cortex membranes; assay: Receptor binding, inhibition of specific ^3 H-5HT (tritiated serotonin) binding; design: species or system male Wistar rats; settings: 15 min at 37°, pH 7.4, 2-3 nM ^3 H-serotonin, read-out: ^3 H-Ligand-IC50, ^3 H-5HT
[2] = system: dopamine metabolites in striatum; assay: Changes in dopamine metabolites (DOPAC, HVA) in striatum; type: in vivo, Wistar rats; settings: 0.3 mg/kg s.c., 1 hour, * statistically significant; for Dopamine Metabolites In Striatum, HVA: control 4.24 ± .27; for Dopamine Metabolites In Striatum, DOPAC: control 5.58 ± .38
Protocol: (§1) Secondly, as a measure of central serotonin agonist activity, the decrease of serotonin metabolites in brain was measured. Also the measure of dopamine agonist activity was indicated by changes in dopamine metabolites.
(§2) The following protocol was employed. 150-200 g. Wistar rats were given 0.3 mg/kg subcutaneously of (±)-4-di-n-propylamino-6-substituted-1,3,4,5-tetrahydrobenz[c,d]indole.Then, 60 minutes later each rat was decapitated and the hypothalamus and striatum were dissected out and extracted. The amounts of homovanillic acid (HVA) and 3,4-dihydroxyphenylacetic acid (DOPAC) in the striatum and of 5-hydroxyindoleacetic acid (5HIAA) in the hypothalamus were measured by high-performance liquid chromatography, using electrochemical detection. Serum corticosteroids were also measured. In the table, columns 1 and 2 give the substitution pattern in the compounds of formula IV, columns 3-5, the 5HT or dopamine metabolite concentrations, and column 6, the serum corticosteroids.
(§3) Compounds were injected at 0.3 mg/kg s.c. 1 hour before rats were killed.

[3] = target: T1, ^3 H-spiperone receptor binding, rat cerebral cortex membranes (Rattus norvegicus, UniProt P14842); assay: Receptor binding, inhibition of specific ^3 H-spiperone binding; design: species or system male Wistar rats; settings: 15 min at 37°, pH 7.4, 0.6-0.7 nM ^3 H-spiperone, read-out: ^3 H-Ligand-IC50, ^3 H-SPIP
T1 construct: The cerebral cortex was dissected out and then homogenized and centrifuged; from tissue; host or cells: cerebral cortex membranes of male Wistar rats
Protocol: The cerebral cortex was dissected out and then homogenized and centrifuged according to the method described by Nelson and coworkers Mol. Pharmacol., 14, 983-995 (1978), using preincubation in buffer without added monoamine oxidase inhibitor in order to eliminate endogenous serotonin. For receptor binding, each sample contained 300-400 μg. of membrane protein and 10 μM pargyline in addition to the ^3 H-ligand in 1 ml. of 0.05 M Tris buffer, pH=7.4. The assay of serotonin binding was done following the method of Bennett and Snyder, Mol. Pharmacol., 12, 373-389 (1976), and that for tritiated spiperone according to Peroutka and Snyder, Mol. Pharmacol. 16 687-699 (1979). The samples were incubated for 15 minutes at 37° and were then filtered through GF/C glass fiber filter pads using a Brandel M-24 cell harvester modified for receptor binding. After two 5 ml. rinses, the filter discs were put into scintillation vials and counted in 10 ml. of Amersham PCS scintillation fluid. Nonspecific binding of ^3 H-serotonin (^3 H-5HT) was determined in the presence of 10^-5 M serotonin and of ^3 H-spiperone in the presence of 10^-6 M LSD. Specific binding was calculated as the difference between total binding with no added nonradioactive compound and the nonspecific binding.

[4] = system: serotonin metabolites in brain (5HIAA in hypothalamus); assay: Decrease of serotonin metabolite (5HIAA) in hypothalamus; type: in vivo, Wistar rats; settings: 0.3 mg/kg s.c., 1 hour; control 2.59 ± .11; * statistically significant
Protocol: as §1, §2, §3

serum corticosteroids = assay: Serum corticosterone; type: in vivo, Wistar rats; settings: 0.3 mg/kg s.c., 1 hour; control 7 ± 1; * statistically significant
Protocol: as §2, §3

[5] = system: serotonin turnover in brain (5-HTP accumulation); assay: 5-HTP accumulation in hypothalamus after decarboxylase block by m-hydroxybenzylhydrazine (serotonin turnover); type: in vivo, Wistar rats
Protocol: Thirdly, as a measure of central serotonin agonist activity, the test rats received (±)-4-di-n-propylamino-6-methoxy-1,3,4,5-tetrahydrobenz[c,d]indole. The decrease of serotonin turnover in brain was measured as a function of 5-hydroxytryptophane (5-HTP) accumulation when the decarboxylation of 5-HTP is blocked by m-hydroxybenzylhydrazine, using the above protocol, except that thirty minutes after injection of the drug, m-hydroxybenzylhydrazine was injected at 100 mg./kg. i.p. Then, 40 minutes later each rat was decapitated, the hypothalamus dissected out and extracted. The amount of 5-HTP in each extract were measured by high-performance liquid chromatography, using electrochemical detection. In normal rats, 5-HTP brain levels are so low as to be virtually undetectable. Thus, the control group received the same dose of m-hydroxybenzylhydrazine as the test rats but no drug.

[6] = system: dopamine uptake, bovine striatal membrane; settings: in vitro; cited from earlier work

T1 sequence (P14842 whole entry): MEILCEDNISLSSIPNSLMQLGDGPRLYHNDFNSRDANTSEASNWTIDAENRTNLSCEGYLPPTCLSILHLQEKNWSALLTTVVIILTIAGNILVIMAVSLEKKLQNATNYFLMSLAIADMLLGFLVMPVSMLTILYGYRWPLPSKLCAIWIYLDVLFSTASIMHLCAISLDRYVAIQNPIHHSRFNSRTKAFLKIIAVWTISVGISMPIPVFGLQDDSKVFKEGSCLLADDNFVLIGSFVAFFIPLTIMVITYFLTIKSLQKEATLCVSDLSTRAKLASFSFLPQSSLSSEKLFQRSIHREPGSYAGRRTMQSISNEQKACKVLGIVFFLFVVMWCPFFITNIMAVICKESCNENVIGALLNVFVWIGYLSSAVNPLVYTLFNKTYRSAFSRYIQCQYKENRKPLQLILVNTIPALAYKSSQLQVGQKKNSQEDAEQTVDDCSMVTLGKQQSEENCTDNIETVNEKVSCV

SMILES	serotonin antagonism (serotonin)	IC50 [1] [µM]	Dopamine Metabolites In Striatum, HVA [2]	Dopamine Metabolites In Striatum, DOPAC [2]	IC50 [3] [µM]	5HIAA In Hypothalamus [4]	Serum Corticosterone (serum corticosteroids) [MCG/100 ML]	5HTP Level in Nanomoles of Hypothalamus ± S.E. ([5]; 0.03 mg/kg, m-hydroxybenzylhydrazine 100 mg/kg i.p., zero dose 1.81 ± 0.11) [Nanomoles]	5HTP Level in Nanomoles of Hypothalamus ± S.E. ([5]; 0.10 mg/kg, m-hydroxybenzylhydrazine 100 mg/kg i.p., zero dose 1.81 ± 0.11, * P < .05) [Nanomoles]	5HTP Level in Nanomoles of Hypothalamus ± S.E. ([5]; 0.30 mg/kg, m-hydroxybenzylhydrazine 100 mg/kg i.p., zero dose 1.81 ± 0.11, * P < .05) [Nanomoles]	5HTP accumulation ([5]; certain dose levels, hypothalamus)	5HTP Level in Nanomoles of Hypothalamus ± S.E. ([5]; ip, 0.01 mg/kg) [Nanomoles]	selective dopamine agonist, action in inhibiting dopamine uptake [6]
CC(=O)NC1Cc2c[nH]c3cccc(c23)C1=O (stereo not shown) [4-acetylamino-5-oxo derivative]	one exception												
COc1ccc2[nH]cc3c2c1CC(N(C)C)C3 (racemic) [(±)-4-dimethylamino-6-methoxy-1,3,4,5-tetrahydrobenz[c,d]indole]		0.07	4.68 ± .21 NMoles/G	7.15 ± .23 NMoles/G	1.49	1.69 ± .07 NMoles/G	41 ± 4						
CCCN(CCC)C1Cc2c[nH]c3ccc(OC)c(c23)C1 (racemic) [(±)-4-di-n-propylamino-6-methoxy-1,3,4,5-tetrahydrobenz[c,d]indole]		0.05	2.43 ± .18 NMoles/G	4.61 ± .10 NMoles/G	0.95	1.51 ± .05 NMoles/G	48 ± 2	1.72 ± 0.07	1.16 ± 0.05	0.97 ± 0.03	significantly decreased 5HTP accumulation	1.85 ± 0.06	
CCCN(CCC)C1Cc2cccc3[nH]cc(c23)C1 (racemic) [(±)-4-di-n-propylamino-1,3,4-5-tetrahydrobenz[c,d]indole]													selective dopamine agonist
